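Method: 48-hour compound exposure of cells in 96-well plates, five concentrations, linear interpolation of endpoints. GI50 = concentration required for 50% inhibition of growth.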 Activity calls are given as the source filed them. Cut-off read from the data, not from the text of the source: active = GI50 up to about 1.1 µM and inactive = higher.
How the values were obtained:
Experiment in all cases: NCI-60 cell line screen, 48 h
SN12C = system: SN12C
SK-MEL-28 = system: SK-MEL-28
CCRF-CEM = system: CCRF-CEM
NCI-H23 = system: NCI-H23
SF-268 = system: SF-268
RXF 393 = system: RXF 393
TK-10 = system: TK-10
UO-31 = system: UO-31
HCT-116 = system: HCT-116
IGROV-1 = system: IGROV-1
UACC-62 = system: UACC-62
DLD-1 = system: DLD-1
SNB-78 = system: SNB-78
SW-620 = system: SW-620
A498 = system: A498
SR = system: SR
MCF7 = system: MCF7
BT-549 = system: BT-549
MDA-MB-435 = system: MDA-MB-435
NCI/ADR-RES = system: NCI/ADR-RES

Compound | GI50 (SN12C) | GI50 (SK-MEL-28) | GI50 (CCRF-CEM) | GI50 (NCI-H23) | GI50 (SF-268) | GI50 (RXF 393) | GI50 (TK-10) | GI50 (UO-31) | GI50 (HCT-116) | GI50 (IGROV-1) | GI50 (UACC-62) | GI50 (DLD-1) | GI50 (SNB-78) | GI50 (SW-620) | GI50 (A498) | GI50 (SR) | GI50 (MCF7) | GI50 (BT-549) | GI50 (MDA-MB-435) | GI50 (NCI/ADR-RES)
O=C(NN1C(=O)C(Cl)C1c1ccc(O)cc1)c1ccccc1O (centres undefined) | 23 µM (inactive) | 19.4 µM (inactive) | 7.11 µM (inactive) | 22.2 µM (inactive) | 18.8 µM (inactive) | 13.1 µM (inactive) | 24.7 µM (inactive) | 15.6 µM (inactive) | 13.7 µM (inactive) | 14 µM (inactive) | 17.2 µM (inactive) | 15.8 µM (inactive) | 21.7 µM (inactive) |  |  |  |  |  |  | 
Cc1cc(C)[n+]2c(c1)C=CC2.[O-][Cl+3]([O-])([O-])[O-] | 31.2 µM (inactive) | 12.4 µM (inactive) |  | 15.7 µM (inactive) | 64 µM (inactive) | 2.89 µM (inactive) | 92 µM (inactive) | 39.4 µM (inactive) |  |  |  | 10.7 µM (inactive) | 21.2 µM (inactive) | 4.18 µM (inactive) |  |  |  |  |  | 
CC(=O)NCc1c(C(N)=O)ncn1Cc1ccccc1 | > 100 µM (inactive) | > 100 µM (inactive) | > 100 µM (inactive) | > 100 µM (inactive) |  | > 100 µM (inactive) | > 100 µM (inactive) |  | > 100 µM (inactive) | > 100 µM (inactive) | > 100 µM (inactive) |  | > 100 µM (inactive) | > 100 µM (inactive) | > 100 µM (inactive) |  |  |  |  | 
CC(=O)Nc1ccc(C(=O)N2N=C(C)/C(=C/c3ccc(O)cc3)C2=O)cc1 | > 100 µM (inactive) | > 100 µM (inactive) | > 100 µM (inactive) | > 100 µM (inactive) | > 100 µM (inactive) |  | > 100 µM (inactive) | > 100 µM (inactive) | > 100 µM (inactive) |  |  | > 100 µM (inactive) | > 100 µM (inactive) | > 100 µM (inactive) |  | > 100 µM (inactive) |  |  |  | 
BrC(/C=N/Nc1nnc(-c2ccccc2)c(-c2ccccc2)n1)C(Br)c1ccccc1 (centres undefined) | 48.8 µM (inactive) | 37.3 µM (inactive) | 24.9 µM (inactive) | 22.2 µM (inactive) | 29.2 µM (inactive) | 25.1 µM (inactive) | 35.8 µM (inactive) | 19.7 µM (inactive) |  | 41.7 µM (inactive) | 18.6 µM (inactive) | 23.8 µM (inactive) | 17.7 µM (inactive) | 37.8 µM (inactive) | 40.2 µM (inactive) |  |  |  |  | 
BrCC[N+]12CC[N+](CCBr)(CC1)C2 | > 100 µM (inactive) | > 100 µM (inactive) | > 100 µM (inactive) | > 100 µM (inactive) | > 100 µM (inactive) | > 100 µM (inactive) | > 100 µM (inactive) | > 100 µM (inactive) | > 100 µM (inactive) | > 100 µM (inactive) | > 100 µM (inactive) |  |  | > 100 µM (inactive) | > 100 µM (inactive) | > 100 µM (inactive) | > 100 µM (inactive) | > 100 µM (inactive) | > 100 µM (inactive) | > 100 µM (inactive)
O/N=C1/C(=C/c2ccc(Oc3ccccc3)cc2)CCCC1C(NO)c1ccc(Oc2ccccc2)cc1 (centres undefined) | 22.8 µM (inactive) | 61.2 µM (inactive) | 12.2 µM (inactive) | 16.9 µM (inactive) | 37.2 µM (inactive) | 14.5 µM (inactive) | 10.3 µM (inactive) | 21 µM (inactive) | 11.5 µM (inactive) | 29.1 µM (inactive) | 43.9 µM (inactive) | 66.1 µM (inactive) | 34.8 µM (inactive) | 32.4 µM (inactive) |  |  |  |  |  | 
CCCN(CCC)C1=Nc2ccccc2-n2cnnc2C1 | > 100 µM (inactive) | > 100 µM (inactive) | > 100 µM (inactive) | > 100 µM (inactive) | > 100 µM (inactive) | > 100 µM (inactive) | > 100 µM (inactive) | > 100 µM (inactive) | > 100 µM (inactive) | > 100 µM (inactive) | > 100 µM (inactive) |  | > 100 µM (inactive) | > 100 µM (inactive) |  | > 100 µM (inactive) |  |  |  | 
CN(C)c1nc(N(C)C)sc(=O)n1 | > 100 µM (inactive) | > 100 µM (inactive) | > 100 µM (inactive) | > 100 µM (inactive) | > 100 µM (inactive) | > 100 µM (inactive) | > 100 µM (inactive) | > 100 µM (inactive) |  | > 100 µM (inactive) | > 100 µM (inactive) | > 100 µM (inactive) |  | > 100 µM (inactive) | > 100 µM (inactive) | > 100 µM (inactive) |  |  |  | 
Cn1c(=O)n(CC(Br)CBr)c(=O)n(CC(Br)CBr)c1=O (centres undefined) | 26 µM (inactive) | 39.7 µM (inactive) | 22.7 µM (inactive) | 36 µM (inactive) | 74.6 µM (inactive) | 32.8 µM (inactive) | 55.5 µM (inactive) | 25.5 µM (inactive) | 25.9 µM (inactive) | 39.9 µM (inactive) | 23.3 µM (inactive) |  |  | 30.9 µM (inactive) | 77.4 µM (inactive) | 18.4 µM (inactive) | 45.8 µM (inactive) | 67.9 µM (inactive) | 29.9 µM (inactive) | 40.5 µM (inactive)
COc1ccc(C(=O)Cn2c(C(=O)/C=C/c3ccco3)nc3ccccc32)cc1 | 39.1 µM (inactive) | 42.2 µM (inactive) | 25.1 µM (inactive) | 42.4 µM (inactive) | 24.5 µM (inactive) | 41.3 µM (inactive) | 44.8 µM (inactive) | 31.6 µM (inactive) | 29.3 µM (inactive) | 44.1 µM (inactive) | 27.4 µM (inactive) |  |  | 31.4 µM (inactive) | 35.5 µM (inactive) | 10 µM (inactive) | 19.4 µM (inactive) | 34.4 µM (inactive) | 24.4 µM (inactive) | 25.9 µM (inactive)
O=C(Nc1c(Cl)cc([N+](=O)[O-])cc1Cl)/C(=N\Nc1cccc(Cl)c1)c1c(O)c2ccccc2oc1=O | 34.2 µM (inactive) | > 100 µM (inactive) | 75.2 µM (inactive) | 62.7 µM (inactive) | 69.8 µM (inactive) | 66.2 µM (inactive) | > 100 µM (inactive) | 23.6 µM (inactive) | 56.1 µM (inactive) | > 100 µM (inactive) | 89.5 µM (inactive) | 42.9 µM (inactive) |  | > 100 µM (inactive) | 21.2 µM (inactive) | 78.7 µM (inactive) |  |  |  | 
N#CC(/C(CCCC(=O)Nc1cccc([N+](=O)[O-])c1)=N/NC(=O)c1cc2ccccc2cc1O)c1ccccc1 (centres undefined) | 35.6 µM (inactive) | > 100 µM (inactive) | 6.1 µM (inactive) | 20 µM (inactive) | 48.1 µM (inactive) | 5.07 µM (inactive) | 31.1 µM (inactive) | 6.56 µM (inactive) | 35.6 µM (inactive) | 17.1 µM (inactive) | 15.8 µM (inactive) | 36.7 µM (inactive) |  | 34.6 µM (inactive) | 35.3 µM (inactive) | 26.8 µM (inactive) |  |  |  | 
CCOC(=O)CN(Cn1cncn1)Cn1cncn1 | 29.4 µM (inactive) | 18.4 µM (inactive) | 47 µM (inactive) |  |  | 14.8 µM (inactive) | 50.7 µM (inactive) | > 100 µM (inactive) | 30.8 µM (inactive) | > 100 µM (inactive) | 33.3 µM (inactive) | 34.9 µM (inactive) | 91 µM (inactive) | 24.1 µM (inactive) |  |  |  |  |  | 
C#C[C@@]1(O)CCCC2=CC(=O)C[C@]21C | > 100 µM (inactive) | > 100 µM (inactive) | > 100 µM (inactive) | > 100 µM (inactive) | > 100 µM (inactive) | > 100 µM (inactive) | > 100 µM (inactive) | > 100 µM (inactive) |  | > 100 µM (inactive) |  | > 100 µM (inactive) |  | > 100 µM (inactive) |  | > 100 µM (inactive) |  |  |  | 
CN(C)CCCC12CCCCC1=Nc1ccccc12 (centres undefined) | > 100 µM (inactive) | > 100 µM (inactive) | 76.6 µM (inactive) | > 100 µM (inactive) | > 100 µM (inactive) | > 100 µM (inactive) | > 100 µM (inactive) | > 100 µM (inactive) | > 100 µM (inactive) | > 100 µM (inactive) | > 100 µM (inactive) |  |  | > 100 µM (inactive) | > 100 µM (inactive) | 22.5 µM (inactive) | > 100 µM (inactive) | > 100 µM (inactive) | 94.6 µM (inactive) | > 100 µM (inactive)
CC(=O)NC(CCC(=O)C=[N+]=[N-])C(=O)O (centres undefined) | > 100 µM (inactive) | > 100 µM (inactive) | > 100 µM (inactive) | > 100 µM (inactive) | > 100 µM (inactive) | > 100 µM (inactive) | > 100 µM (inactive) | > 100 µM (inactive) | > 100 µM (inactive) | > 100 µM (inactive) | > 100 µM (inactive) |  |  | > 100 µM (inactive) | > 100 µM (inactive) | > 100 µM (inactive) | > 100 µM (inactive) | > 100 µM (inactive) | > 100 µM (inactive) | > 100 µM (inactive)
COC(=O)C[S+]([O-])c1ccccc1 (centres undefined) | 17.6 µM (inactive) | 29.8 µM (inactive) | 7.67 µM (inactive) | 35 µM (inactive) | 14 µM (inactive) | 16.4 µM (inactive) | 44 µM (inactive) | 4.63 µM (inactive) | 30.3 µM (inactive) | 19.2 µM (inactive) | 29.2 µM (inactive) | 29.1 µM (inactive) | 33.5 µM (inactive) | 38.3 µM (inactive) | 49.8 µM (inactive) |  |  |  |  | 
CC1=C(CO)C(=O)O[C@@H]([C@@H](C)[C@H]2CC[C@H]3[C@@H]4C[C@H]5O[C@]56[C@@H](O)C=CC(=O)[C@]6(C)[C@H]4CC[C@]23C)C1 [WITHAFERIN A] |  | 0.55 µM (active) | 0.113 µM (active) | 0.221 µM (active) | 0.352 µM (active) |  | 0.641 µM (active) | 1.09 µM (active) | 0.282 µM (active) | 1.16 µM (inactive) | 1.45 µM (inactive) | 0.303 µM (active) |  | 0.199 µM (active) |  | 0.189 µM (active) |  |  |  | 

Source: ChEMBL document CHEMBL1201862, “PubChem BioAssay data set” (2004)
